Test results reported in patent US20110294794A1, “TREATMENT OF PROTEINOPATHIES USING A FARNESYL TRANSFERASE INHIBITOR” (Link Medicine Corporation, priority 2008, published 2011).
Entries after “also recorded” stand apart in the source; their conditions may differ. Like-named read-outs stand apart in the source and are kept apart here.

Assays:
[1] = test system: α-synuclein; assay: Masliah D-line human WT α-synuclein transgenic mouse, α-synuclein immunoreactivity / ELISA; assay type: in vivo; settings: for number of α-synuclein positive neurons: lower-dose trial (FIG. 2B); for levels of α-synuclein in the hippocampus / α-synuclein inclusions vs. transgenic animals administered vehicle alone: α-synuclein transgenic mice
Protocol: Animals and treatments: Male and female human WT alpha-synuclein over-expressing transgenic mice^32 at 6 months of age were given vehicle (10% beta-cyclodextrin) or LNK-754-TS (0.09, 0.9 and 9 mg/kg) per oral gavage twice daily for 3 months or animals at 7 months of age were given vehicle (2.5% beta-cyclodextrin) or LNK-754-TS (2 mg/kg) once every three days for 3 months. Male and female TAU transgenic mice expressing TAU441 bearing the missense mutations V337M^50 and R406W under the control of the murine Thy-1 promoter with a CB6xC57BL/6 background were 5 months old at the time when the oral treatment for three months with LNK-754-TS (0.9 and 0.09 mg/kg) as well as vehicle (2.5% beta-cyclodextrin) was started. Female human APP/PS1 (APP (London V7171)/PS1(A246E)) over-expressing transgenic mice were treated with LNK-754-TS (0.9 mg/kg) or vehicle (2.5% beta-cyclodextrin) for 2 months or 12 days.
Immunohistochemistry and quantification of stained cells: For evaluation of α-synuclein immunoreactivity (IR), 5 sagittal cryo-cut sections (10 μm slice thickness) from five different layers were used for counting of IR cells in the cortex and hippocampus. Brain sections were stained with a monoclonal human α-synuclein specific antibody (Alexis®; Cat# 804-258-L001; dilution 1:5), followed by a secondary Ab Cy 2-Goat Anti-Rat (Jackson ImmunoResearch®; dilution 1:200). IR positive cells were quantified using specialized image analysis software (Image Pro Plus, version 4.5.1.29). For Tau transgenic animals, 5 μm thick coronal paraffin sections were stained with the monoclonal mouse anti-human TAU-antibodies (AT180—1:100; HT—1:500) and visualized using an anti-mouse Cy3 secondary antibody (1:500, Jackson laboratories®). Images were evaluated with ImageProPlus (version 6.2) image analysis software. For APP/PS1 transgenic animals sagittal hemisections (40 μm) were collected and processed for Aβ immunohistochemistry using an 6E10 antibody, Thioflavin-S staining Primary antibodies were detected by the ABC method.
ELISA quantification of α-Synuclein in the α-Synuclein transgenic animals: Brain homogenate was centrifuged and the supernatant saved as fraction F1. The pellet was washed then resuspended and saved as fraction F2. Plates (Nunc, 464718) were coated with SYN-1 (1:1000, BD Transduction Labs, 610787). Monomeric recombinant α-synuclein was included as an internal standard. Biotinylated antibody FL-140 (1:300, Santa Cruz Biotechnology, sc-10717-B) and ExtrAvidin-Alkaline phosphatase (3:5000, Sigma, E2636) was added followed by pNPP substrate solution (Sigma, N1891). Raw absorbance (405 nm) was then normalized to the total protein concentration of each sample. In the APP/PS1 transgenic animal, brains were homogenized and the supernatant, Faction 1, was separated from the pellet. The pellets were further processed with addition of NP40 and Triton X-100. The supernatant was separated from the pellet as the insoluble membrane, Fraction 2, and was dissolved in 8M Guanidine. To quantify the amount of human Aβ-40 and Aβ-42, ELISA kits were used (The Genetics Company, Zurich, Switzerland).
In FIG. 2 is shown efficacy data for LNK-754-TS in the Masliah D-line transgenic α-synuclein mouse (an accepted model of synucleinopathies). Two trials are shown, the first (FIG. 2A) at higher doses of LNK-754-TS: 45 mg/kg and 9 mg/kg. […] The second trial (FIG. 2B) explores the low dose range for efficacy in the α-synuclein models. […]
After dosing with LNK-754-TS for three months (twice daily at 0.09 mg/kg or 0.9 mg/kg), α-synuclein accumulation in the brain was analyzed by immunohistochemical (human specific α-synuclein immunoreactivity) and biochemical (α-synuclein ELISA) means. […]

[2] = molecular target: T1, GGTase (Homo sapiens, UniProt P49354+P53609); assay: In vitro GGTase inhibition by LNK-754 (Table 5A); assay type: biochemical; settings: general statement
Description: (§1) The selectivity of LNK-754 for FTase over GGTAse is shown below in Table 5A.

[3] = test system: GGTase; assay: In vitro GGTase inhibition by LNK-754 (Table 5A); assay type: biochemical
Description: as §1

[4] = test system: 3T3 H-ras (61L) xenograft tumor; settings: continuous infusion, cited from earlier work
[5] = Pharmacokinetics of Zarnestra in C57BL/6 mice, oral administration; assay type: in vivo, mouse; settings: 5 mg/kg p.o. single dose
Protocol: LLOQ: brain 4 ng/g; plasma 50 ng/ml.
The pharmacokinetic profiles of LNK-754-TS and Zarnestra® were analyzed using methods known in the art. The results are shown in FIGS. 13-14 and the tables below.

[6] = test system: LC3 mRNA; assay: LC3 mRNA (qPCR) in differentiated SH-SY5Y cells; assay type: cell-based, human; settings: 100 nM, 72 hr
Protocol: (§2) Cell culture and immunocytochemistry: SH-SY5Y cells were grown in DMEM medium supplemented with 10% FBS and 1% pen/strep at 37° C. and 5% CO2. Cells were differentiated with 10 μM retinoic acid for 48 hr, then treated with the either rapamycin (100 nM or 1 μM) or with 100 nM of either LNK-754-TS or Tipifarnib for 48-72 hr. Cells were then fixed with 4% paraformaldehyde and stained for LC3 (Novus biological, NB100-2331, dilution 1:800) followed by secondary Alexa-564 anti-Rabbit (A-11011).
(§3) Quantitative real-time PCR: Gene expression profiles were done by qPCR on series of known autophagy genes. RNA was extracted with Tri-reagent (Sigma), and cDNAs generated using iScript (Biorad). qPCR analysis was carried out in a 96 well plate using an iCycler (BioRad, Hercules, Calif.), and iQ SYBR Green Supermix (Biorad) according to the manufacturer's specifications.
Such increases in LC3 mRNA levels are associated in the literature with stimulation of macroautophagy. This supports the hypothesis that at doses as low as 1 nM in this in vitro system there is stimulation of autophagy in these cells.
(§4) Autophagy was measured in a neuroblastoma cell culture system by three distinct approaches: quantitation of autophagy-related mRNA's, immunofluorescence microscopy of autophagosomes, and biochemical detection of the microtubule-associated protein 1 light chain 3 (LC3) a key protein that is required for autophagosome formation. Differentiated human neuroblastoma cells (SH-SY5Y) were treated for 72 hr with LNK-754-TS (0.01-100 nM), Zarnestra® (also referred to herein as tipifarnib) (100 nM) or rapamycin (1 μM).

[7] = test system: LC3; assay: Punctate LC3 immunostaining in SH-SY5Y cells; assay type: cell-based, human; settings: 100 nM (FIG. 8b)
Protocol: as §2, §4

[8] = test system: Atg1; assay: mRNA levels of autophagy-related genes (Atg1) in SH-SY5Y cells; assay type: cell-based, human; settings: 100 nM (FIG. 8d)
Protocol: as §3
(§5) The mechanism of autophagy stimulation by LNK-754-TS appears distinct from that of the drug rapamycin. Rapamycin is a well-characterized autophagy stimulator that acts through inhibition of mTOR, a kinase involved in nutrient signaling and regulation of cell growth and survival. […] To further contrast the mechanism of autophagy stimulation by LNK-754-TS to that of rapamycin, a collection of mRNA transcripts of autophagy proteins were measured (FIG. 8d). Selected mRNAs from untreated SH-SY5Y cells were compared to mRNAs from cells treated with LNK-754-TS (100 nM), tipifarnib (100 nM), or rapamycin (1 μM).

[9] = molecular target: T1, GGTase; settings: general statement; cited from earlier work
[10] = test system: LC3-II; assay: LC3-II protein level (autophagic flux) in SH-SY5Y cells with or without bafilomycin A1; assay type: cell-based, human; settings: bafilomycin A1 (10 nM) alone, without test compound
Description: Data are represented as mean+/−SEM with statistical significance by paired student's t-test (n=4, p<0.05).
The observed increase in LC3-positive autophagosomes could result, in principle, from either an increased flux through the autophagy pathway or decreased autophagosome degradation (Pankiv, S., et al. J Biol Chem 282, 24131-24145 (2007); Kamada, Y., et al. J Cell Biol 150, 1507-1513 (2000)). […] In order to ascertain an increase in autophagic flux, cells were co-treated with LNK-754-TS and an inhibitor of autophagosome-lysosome fusion, bafilomycin A1 (10 nM). Bafilomycin treatment alone caused a 100% increase in the amount of LC3-II, consistent with the fact that it inhibits autophagosome degradation (FIG. 8c).
as §5

Question: What does the source list for `C#Cc1cccc(-c2cc(=O)n(C)c3ccc([C@](O)(c4ccc(Cl)cc4)c4cncn4C)cc23)c1` [LNK-754, (R)-6-[(4-chlorophenyl)-hydroxyl-(1-methyl-1-H-imidazol-5-yl)-methyl]-4-(3-ethynylphenyl)-1-methyl-2-(1H)-quinonlinone]?
Answer: number of α-synuclein positive neurons ([1]; 0.09 mg/kg): significantly lowered; number of α-synuclein positive neurons ([1]; 0.9 mg/kg): significantly lowered; number of α-synuclein positive neurons in the brain ([1]; 9 mg/kg PO BID 3 months, higher-dose trial (FIG. 2A)): significantly lower; number of α-synuclein positive neurons in the brain ([1]; 45 mg/kg PO BID 3 months, higher-dose trial (FIG. 2A)): did not significantly lower; also recorded: not found to significantly lower; number of α-synuclein positive neurons in the brain ([1]; lower doses, 0.09 mg/kg to 9 mg/kg (FIGS. 2A and 2B)): significant reduction; levels of α-synuclein in the hippocampus [1]: decrease; α-synuclein inclusions vs. transgenic animals administered vehicle alone [1]: fewer; GGTase inhibitory activity [2]: little to no; GGTI/FTI ([3]; H-Ras substrates): 580; GGTI/FTI ([3]; K-Ras substrates): 40.11; continuous serum level at which significant inhibition of tumor growth was seen ([4]; 7 day treatment): above 100 ng/mL; inhibition of Ras farnesylation at which significant inhibition of tumor growth was seen ([4]; tumor tissue): at least 50%

Question: Which results are given for `Cn1cncc1[C@@](N)(c1ccc(Cl)cc1)c1ccc2c(c1)c(-c1cccc(Cl)c1)cc(=O)n2C` [Zarnestra®, (R)-6-(Amino(4-chlorophenyl)(1-methyl-1H-imidazol-5-yl)methyl)-4-(3-chlorophenyl)-1-methyl-2(1H)-quinolinone, reference compound]?
Answer: levels of α-synuclein in the hippocampus [1]: decrease; α-synuclein inclusions vs. transgenic animals administered vehicle alone [1]: fewer; t1/2z ([5]; Blood): 1.31 h; AUC(0-t) ([5]; Brain): 44.50 ng·h/g; AUC(0-[…]) ([5]; Brain): 86.86 ng·h/g; t1/2z ([5]; Brain): 8.10 h; LC3 mRNA level [6]: also works; also recorded: upregulated; LC3 mRNA level ([6]; listed as tipifarnib): increased; punctate LC3 immunostaining (number of LC3-positive puncta) [7]: distinct increase; punctate LC3 immunostaining (number of LC3-positive puncta) ([7]; listed as tipifarnib): increased; mRNA levels of a set of autophagy-related genes [8]: unaffected; GGTase inhibitory activity [9]: little to no

Question: Which “increase in the amount of LC3-II” value [10] does the source give for `CO/C1=C\C(C)=C\[C@@H](C)[C@@H](O)[C@@H](C)C/C(C)=C/C=C/[C@H](OC)[C@@H]([C@@H](C)[C@@H](O)[C@H](C)[C@@]2(O)C[C@@H](O)[C@H](C)[C@@H](C(C)C)O2)OC1=O` [bafilomycin A1, reference compound] here?
Answer: 100%
